Source: patent US9951028B2, “Agricultural chemicals” (REDAG CROP PROTECTION LTD, priority 2013, dated 2018)

How the values were obtained:
Assay type in all cases: in vivo
[1] = test system: garden cress, Lepidium sativum; test: Herbicidal efficacy screen, potter tower spray, necrosis assessed; settings: 200 g/ha
Method: (§1) Compounds 22, 23 and 24 were screened for herbicidal efficacy against target plants: garden cress, Lepidium sativum, common chickweed, Stellaria media, and white mustard […] alba Plants were obtained as seeds and were grown to the 2-4 true leaf stage. Plants were grown under laboratory conditions, individually in seed trays. Each plant (in an approximately 3 cm diameter plug) was then detached from the tray for spraying. The compounds were screened at a range of five concentrations, diluted in acetone and TweenTM. A carrier only control was also conducted. Treatments were applied directly onto the plants, using a potter tower, at a specified application rate. One plant of each species was sprayed using a potter tower. The 3 different types of plants were placed on a 10 cm diameter platform directly beneath the potter sprayer and sprayed simultaneously. The growth of the plants and any Phytotoxicity effects were then assessed at intervals over 21 days, according to EPPO guideline PP1/135. Five replicas were performed for each treatment, for each species. In the tables below C represents a percentage increase in necrosis relative to the control of 0.1-50; B represents a percentage inhibition of 50-80; and A represents a percentage inhibition of 80-100.

[2] = test system: white mustard Sinapsis alba; test: as above
Method: as §1

[3] = test system: Abutilon theophrasti (China Jute); test: Herbicidal efficacy screen, corrected necrosis
Method: (§2) Plants were obtained as seeds and were grown to the 2-4 true leaf stage. Plants were grown under laboratory conditions, individually in seed trays. Each plant (in an approximately 3 cm diameter plug) was then detached from the tray for spraying. The compounds were screened at a range of five concentrations, diluted in acetone and Tween™. A carrier only control was also conducted. Treatments were applied directly onto the plants, using a potter tower, at a specified application rate. One plant of each species was sprayed using a potter tower. The 3 different types of plants were placed on a 10 cm diameter platform directly beneath the potter sprayer and sprayed simultaneously. The growth of the plants and any Phytotoxicity effects were then assessed at intervals over 21 days, according to EPPO guideline PP1/135. In the tables below C represents a percentage increase in necrosis relative to the control of 0.1-50; B represents a percentage inhibition of 50-80; and A represents a percentage inhibition of 80-100. Certain compounds of the invention were screened for herbicidal efficacy against target plants: Amaranthus retroflexus (redroot pigweed), Abutilon theophrasti (China Jute): Capsella bursa-pastoris, (shepherd's-purse) Echinochloa crus-galli, Hordeum vulgare (Barley),

[4] = test system: Amaranthus retroflexus (redroot pigweed); test: Herbicidal efficacy screen, corrected necrosis
Method: as §2

[5] = test system: Capsella bursa-pastoris, (shepherd's-purse); test: Herbicidal efficacy screen, corrected necrosis
Method: as §2

[6] = 12.5 g/ha, day 1 post application
[7] = 12.5 g/ha, day 7 post application
[8] = 25 g/ha, day 1 post application
[9] = 25 g/ha, day 7 post application
[10] = 50 g/ha, day 1 post application
[11] = 50 g/ha, day 7 post application
[12] = 100 g/ha, day 1 post application
[13] = 100 g/ha, day 7 post application
[14] = 6.25 g/ha, day 1 post application
[15] = 6.25 g/ha, day 7 post application

CC(C)C(C)S(=O)(=O)NCc1cc(-n2c(=O)cc(C(F)(F)F)n(C)c2=O)c(F)cc1Cl (centres unmarked) [Compound 24, N-[[2-Chloro-4-fluoro-5-[3-methyl-2,6-dioxo-4-(trifluoromethyl)pyrimidin-1-yl]phenyl]methyl]-3-methyl-butane-2-sulfonamide]
Average of necrosis ([1]; day 5 post application): C (C represents a percentage increase in necrosis relative to the control of 0.1-50)
Average of necrosis ([1]; day 7 post application): C (C represents a percentage increase in necrosis relative to the control of 0.1-50)
Average of necrosis ([1]; day 10 post application): B (B represents a percentage inhibition of 50-80)
Average of necrosis [2, 6]: C (C represents a percentage increase in necrosis relative to the control of 0.1-50)
Average of necrosis ([2]; 12.5 g/ha, day 2 post application): C (C represents a percentage increase in necrosis relative to the control of 0.1-50)
Average of necrosis ([2]; 12.5 g/ha, day 3 post application): C (C represents a percentage increase in necrosis relative to the control of 0.1-50)
Average of necrosis ([2]; 12.5 g/ha, day 4 post application): C (C represents a percentage increase in necrosis relative to the control of 0.1-50)
Average of necrosis ([2]; 12.5 g/ha, day 5 post application): C (C represents a percentage increase in necrosis relative to the control of 0.1-50)
Average of necrosis [2, 7]: C (C represents a percentage increase in necrosis relative to the control of 0.1-50)
Average of necrosis ([2]; 12.5 g/ha, day 10 post application): C (C represents a percentage increase in necrosis relative to the control of 0.1-50)
Average of necrosis [2, 8]: C (C represents a percentage increase in necrosis relative to the control of 0.1-50)
Average of necrosis ([2]; 25 g/ha, day 2 post application): C (C represents a percentage increase in necrosis relative to the control of 0.1-50)
Average of necrosis ([2]; 25 g/ha, day 3 post application): C (C represents a percentage increase in necrosis relative to the control of 0.1-50)
Average of necrosis ([2]; 25 g/ha, day 4 post application): C (C represents a percentage increase in necrosis relative to the control of 0.1-50)
Average of necrosis ([2]; 25 g/ha, day 5 post application): C (C represents a percentage increase in necrosis relative to the control of 0.1-50)
Average of necrosis [2, 9]: C (C represents a percentage increase in necrosis relative to the control of 0.1-50)
Average of necrosis ([2]; 25 g/ha, day 10 post application): C (C represents a percentage increase in necrosis relative to the control of 0.1-50)
Average of necrosis [2, 10]: C (C represents a percentage increase in necrosis relative to the control of 0.1-50)
Average of necrosis ([2]; 50 g/ha, day 2 post application): C (C represents a percentage increase in necrosis relative to the control of 0.1-50)
Average of necrosis ([2]; 50 g/ha, day 3 post application): C (C represents a percentage increase in necrosis relative to the control of 0.1-50)
Average of necrosis ([2]; 50 g/ha, day 4 post application): C (C represents a percentage increase in necrosis relative to the control of 0.1-50)
Average of necrosis ([2]; 50 g/ha, day 5 post application): C (C represents a percentage increase in necrosis relative to the control of 0.1-50)
Average of necrosis [2, 11]: C (C represents a percentage increase in necrosis relative to the control of 0.1-50)
Average of necrosis ([2]; 50 g/ha, day 10 post application): C (C represents a percentage increase in necrosis relative to the control of 0.1-50)
Average of necrosis [2, 12]: C (C represents a percentage increase in necrosis relative to the control of 0.1-50)
Average of necrosis ([2]; 100 g/ha, day 2 post application): C (C represents a percentage increase in necrosis relative to the control of 0.1-50)
Average of necrosis ([2]; 100 g/ha, day 3 post application): C (C represents a percentage increase in necrosis relative to the control of 0.1-50)
Average of necrosis ([2]; 100 g/ha, day 4 post application): C (C represents a percentage increase in necrosis relative to the control of 0.1-50)
Average of necrosis ([2]; 100 g/ha, day 5 post application): C (C represents a percentage increase in necrosis relative to the control of 0.1-50)
Average of necrosis [2, 13]: C (C represents a percentage increase in necrosis relative to the control of 0.1-50)
Average of necrosis ([2]; 100 g/ha, day 10 post application): C (C represents a percentage increase in necrosis relative to the control of 0.1-50)
Average of necrosis ([2]; 200 g/ha, day 1 post application): C (C represents a percentage increase in necrosis relative to the control of 0.1-50)
Average of necrosis ([2]; 200 g/ha, day 2 post application): C (C represents a percentage increase in necrosis relative to the control of 0.1-50)
Average of necrosis ([2]; 200 g/ha, day 3 post application): C (C represents a percentage increase in necrosis relative to the control of 0.1-50)
Average of necrosis ([2]; 200 g/ha, day 4 post application): C (C represents a percentage increase in necrosis relative to the control of 0.1-50)
Average of necrosis ([2]; 200 g/ha, day 5 post application): C (C represents a percentage increase in necrosis relative to the control of 0.1-50)
Average of necrosis ([2]; 200 g/ha, day 7 post application): C (C represents a percentage increase in necrosis relative to the control of 0.1-50)
Average of necrosis ([2]; 200 g/ha, day 10 post application): C (C represents a percentage increase in necrosis relative to the control of 0.1-50)
Average of corrected necrosis [3, 14]: 0%
Average of corrected necrosis [3, 15]: A (A represents a percentage inhibition of 80-100)
Average of corrected necrosis [3, 6]: 0%
Average of corrected necrosis [3, 7]: A (A represents a percentage inhibition of 80-100)
Average of corrected necrosis [3, 8]: 0%
Average of corrected necrosis [3, 9]: A (A represents a percentage inhibition of 80-100)
Average of corrected necrosis [3, 10]: 0%
Average of corrected necrosis [3, 11]: A (A represents a percentage inhibition of 80-100)
Average of corrected necrosis [3, 12]: C (C represents a percentage increase in necrosis relative to the control of 0.1-50)
Average of corrected necrosis [3, 13]: A (A represents a percentage inhibition of 80-100)
Average of corrected necrosis [4, 14]: C (C represents a percentage increase in necrosis relative to the control of 0.1-50)
Average of corrected necrosis [4, 15]: A (A represents a percentage inhibition of 80-100)
Average of corrected necrosis [4, 6]: C (C represents a percentage increase in necrosis relative to the control of 0.1-50)
Average of corrected necrosis [4, 7]: A (A represents a percentage inhibition of 80-100)
Average of corrected necrosis [4, 8]: C (C represents a percentage increase in necrosis relative to the control of 0.1-50)
Average of corrected necrosis [4, 9]: A (A represents a percentage inhibition of 80-100)
Average of corrected necrosis [4, 10]: C (C represents a percentage increase in necrosis relative to the control of 0.1-50)
Average of corrected necrosis [4, 11]: A (A represents a percentage inhibition of 80-100)
Average of corrected necrosis [4, 12]: C (C represents a percentage increase in necrosis relative to the control of 0.1-50)
Average of corrected necrosis [4, 13]: A (A represents a percentage inhibition of 80-100)
Average of corrected necrosis [5, 14]: C (C represents a percentage increase in necrosis relative to the control of 0.1-50)
Average of corrected necrosis [5, 15]: A (A represents a percentage inhibition of 80-100)
Average of corrected necrosis [5, 6]: 0%
Average of corrected necrosis [5, 7]: B (B represents a percentage inhibition of 50-80)
Average of corrected necrosis [5, 8]: C (C represents a percentage increase in necrosis relative to the control of 0.1-50)
Average of corrected necrosis [5, 9]: A (A represents a percentage inhibition of 80-100)
Average of corrected necrosis [5, 10]: C (C represents a percentage increase in necrosis relative to the control of 0.1-50)
Average of corrected necrosis [5, 11]: A (A represents a percentage inhibition of 80-100)
Average of corrected necrosis [5, 12]: C (C represents a percentage increase in necrosis relative to the control of 0.1-50)
Average of corrected necrosis [5, 13]: A (A represents a percentage inhibition of 80-100)
